Source: patent publication US20250145599A1, “CERTAIN CHEMICAL ENTITIES, COMPOSITIONS, AND METHODS” (Retune Pharma Inc., priority 2022, published 2025)

The compounds below were run against IGF-1R (Homo sapiens, UniProt P08069) (assay: IGF-1R biochemical assay (ADP-Glo)). Settings: read-out: IGF1R IC50.
IGF-1R, sequence (P08069 31-1367): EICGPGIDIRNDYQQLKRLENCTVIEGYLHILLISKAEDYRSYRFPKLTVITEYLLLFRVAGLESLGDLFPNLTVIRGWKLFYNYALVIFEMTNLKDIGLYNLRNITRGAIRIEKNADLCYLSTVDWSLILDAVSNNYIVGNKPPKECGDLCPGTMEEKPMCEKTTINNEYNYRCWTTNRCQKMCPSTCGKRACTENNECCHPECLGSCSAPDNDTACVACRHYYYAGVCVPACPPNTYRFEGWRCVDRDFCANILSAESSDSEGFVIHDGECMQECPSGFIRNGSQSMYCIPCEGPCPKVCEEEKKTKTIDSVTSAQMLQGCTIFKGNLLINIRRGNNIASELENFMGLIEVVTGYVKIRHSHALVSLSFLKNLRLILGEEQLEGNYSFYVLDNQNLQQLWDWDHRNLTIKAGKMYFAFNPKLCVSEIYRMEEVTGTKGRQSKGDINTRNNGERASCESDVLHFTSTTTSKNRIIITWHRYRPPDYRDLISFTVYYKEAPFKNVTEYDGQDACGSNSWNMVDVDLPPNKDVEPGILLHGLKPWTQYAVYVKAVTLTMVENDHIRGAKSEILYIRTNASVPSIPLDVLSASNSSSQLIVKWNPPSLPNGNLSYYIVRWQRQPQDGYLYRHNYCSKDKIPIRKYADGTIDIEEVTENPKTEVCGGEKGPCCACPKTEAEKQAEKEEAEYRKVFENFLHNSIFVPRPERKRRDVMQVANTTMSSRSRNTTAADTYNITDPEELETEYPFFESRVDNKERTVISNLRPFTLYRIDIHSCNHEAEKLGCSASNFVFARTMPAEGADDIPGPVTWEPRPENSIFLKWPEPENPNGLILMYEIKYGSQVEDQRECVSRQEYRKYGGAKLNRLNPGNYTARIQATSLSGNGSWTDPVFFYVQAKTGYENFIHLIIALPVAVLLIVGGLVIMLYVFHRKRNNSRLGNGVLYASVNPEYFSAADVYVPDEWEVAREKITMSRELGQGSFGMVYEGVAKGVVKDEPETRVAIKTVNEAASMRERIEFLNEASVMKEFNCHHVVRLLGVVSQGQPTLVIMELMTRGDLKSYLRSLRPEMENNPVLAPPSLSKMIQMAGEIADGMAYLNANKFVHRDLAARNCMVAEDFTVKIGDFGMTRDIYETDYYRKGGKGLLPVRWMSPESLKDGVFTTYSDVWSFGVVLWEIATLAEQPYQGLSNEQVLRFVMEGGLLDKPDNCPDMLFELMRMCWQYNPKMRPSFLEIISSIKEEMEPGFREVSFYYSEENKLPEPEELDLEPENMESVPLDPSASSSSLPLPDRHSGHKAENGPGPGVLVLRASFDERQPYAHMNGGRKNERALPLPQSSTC
Protocol: The inhibitory activity against IGF-1R was measured using ADP-Glo assay. The percent (%) inhibition at each concentration of compound is calculated based on and relative to the luminescence signal in the Max and Min control wells contained within each assay plate. The Max control wells contain enzyme and substrate as 0% inhibition, and the Min control wells only contain substrate without enzyme as 100% inhibition. The concentrations and % inhibition values for tested compounds are plotted and the concentration of compound required for 50% inhibition (IC50) is determined with a four-parameter logistic dose response equation.
Table 3 provides IC50 data of representative compounds against IGF-1R using ADP-Glo assay. The IC50 data are designated within the following ranges: A: ≤0.10 μM, B: >0.10 μM to ≤1 μM, C: >1 μM to ≤20 μM
With `NC(=O)c1c(-c2ccc3ccc(-c4ccccc4)nc3c2)nn([C@H]2C[C@H](CN3CCC3)C2)c1N` [Example C014, 5-amino-1-((1r,3r)-3-(azetidin-1-ylmethyl)cyclobutyl)-3-(2-phenylquinolin-7-yl)-1H-pyrazole-4-carboxamide] the IC50 was no more than 100 nM.
`CCOC(=O)[C@H]1C[C@@H](n2nc(-c3ccc4ccc(-c5ccccc5)nc4c3)c(C(N)=O)c2N)C1` [Example C011, ethyl (1s,3s)-3-(5-amino-4-carbamoyl-3-(2-phenylquinolin-7-yl)-1H-pyrazol-1-yl)cyclobutane-1-carboxylate] was tested, and the IC50 was 100 to 1000 nM.
`C[C@]1(O)C[C@@H](n2nc(-c3ccc4c(O)cc(-c5ccccc5)nc4c3F)c(C(N)=O)c2N)C1` [Example C042, 5-amino-3-(8-fluoro-4-hydroxy-2-phenylquinolin-7-yl)-1-((1s,3s)-3-hydroxy-3-methylcyclobutyl)-1H-pyrazole-4-carboxamide] showed an IC50 of 1000 to 20000 nM.
Compound `C[C@]1(C(=O)O)C[C@H](n2nc(-c3ccc4ccc(-c5ccccc5)nc4c3)c(C(N)=O)c2N)C1` [Example C022, (1r,3r)-3-(5-amino-4-carbamoyl-3-(2-phenylquinolin-7-yl)-1H-pyrazol-1-yl)-1-methylcyclobutane-1-carboxylic acid] has an IC50 of 1000 to 20000 nM.
`C[C@]1(O)C[C@H](n2nc(-c3ccc4ccc(-c5ccccc5F)nc4c3)c(C(N)=O)c2N)C1` [Example C040, 5-amino-3-(2-(2-fluorophenyl)quinolin-7-yl)-1-((1r,3r)-3-hydroxy-3-methylcyclobutyl)-1H-pyrazole-4-carboxamide] showed an IC50 of no more than 100 nM.
`NC(=O)c1c(-c2ccc3ccc(-c4ccccc4)nc3c2)nn([C@H]2C[C@@H](O)C2)c1N` [Example C009, 5-amino-1-((1s,3s)-3-hydroxycyclobutyl)-3-(2-phenylquinolin-7-yl)-1H-pyrazole-4-carboxamide] gave an IC50 of 1000 to 20000 nM.
With `C[C@]1(O)C[C@@H](n2nc(-c3ccc4cc(F)c(-c5ccccc5)nc4c3F)c(C(N)=O)c2N)C1` [Example C059, 5-amino-3-(3,8-difluoro-2-phenylquinolin-7-yl)-1-((1s,3s)-3-hydroxy-3-methylcyclobutyl)-1H-pyrazole-4-carboxamide] the IC50 was 100 to 1000 nM.
In the case of `CN1CCN(C2CC(n3nc(-c4ccc5ccc(-c6ccccc6)nc5c4)c(C(N)=O)c3N)C2)CC1` (stereo not drawn) [Example C026, 5-amino-1-(3-(4-methylpiperazin-1-yl)cyclobutyl)-3-(2-phenylquinolin-7-yl)-1H-pyrazole-4-carboxamide], the IC50 is reported as no more than 100 nM.
Compound `NC(=O)c1c(-c2ccc3ccc(-c4ccccc4)nc3c2)nn(C2CCNCC2)c1N` [Example C002, 5-amino-3-(2-phenylquinolin-7-yl)-1-(piperidin-4-yl)-1H-pyrazole-4-carboxamide] has an IC50 of 100 to 1000 nM.
In the case of `C[C@]1(O)C[C@@H](n2nc(-c3ccc4c(OC(F)F)cc(-c5ccccc5)nc4c3F)c(C(N)=O)c2N)C1` [Example C044, 5-amino-3-(4-(difluoromethoxy)-8-fluoro-2-phenylquinolin-7-yl)-1-((1s,3s)-3-hydroxy-3-methylcyclobutyl)-1H-pyrazole-4-carboxamide], the IC50 is reported as no more than 100 nM.
Work on `NC(=O)c1c(-c2ccc3ccc(-c4ccccc4)nc3c2)nn(C2CC(N3CCNCC3)C2)c1N` (stereo not drawn) [Example C025, 5-amino-3-(2-phenylquinolin-7-yl)-1-(3-(piperazin-1-yl)cyclobutyl)-1H-pyrazole-4-carboxamide] yielded an IC50 of no more than 100 nM.
`NC(=O)c1c(-c2ccc3ccc(-c4ccccc4)nc3c2)nn(C2CC(F)(F)C2)c1N` [Example C030, 5-amino-1-(3,3-difluorocyclobutyl)-3-(2-phenylquinolin-7-yl)-1H-pyrazole-4-carboxamide] showed an IC50 of 100 to 1000 nM.
`NC(=O)c1c(-c2ccc3ccc(-c4ccccc4)nc3c2)nn(C2CC(=O)C2)c1N` [Example C001, 5-amino-1-(3-oxocyclobutyl)-3-(2-phenylquinolin-7-yl)-1H-pyrazole-4-carboxamide] showed an IC50 of 1000 to 20000 nM.
Work on `CC(=O)N1CCC(n2nc(-c3ccc4ccc(-c5ccccc5)nc4c3)c(C(N)=O)c2N)CC1` [Example C010, 1-(1-acetylpiperidin-4-yl)-5-amino-3-(2-phenylquinolin-7-yl)-1H-pyrazole-4-carboxamide] yielded an IC50 of 1000 to 20000 nM.
`COc1cc(-c2ccccc2F)nc2cc(-c3nn([C@H]4C[C@](C)(O)C4)c(N)c3C(N)=O)ccc12` [Example C047, 5-amino-3-(2-(2-fluorophenyl)-4-methoxyquinolin-7-yl)-1-((1r,3r)-3-hydroxy-3-methylcyclobutyl)-1H-pyrazole-4-carboxamide] showed an IC50 of no more than 100 nM.
For `NC(=O)c1c(-c2ccc3ccc(-c4ccccc4)nc3c2)nn(C2CC(N3CCOCC3)C2)c1N` (stereo not drawn) [Example C023, 5-amino-1-(3-morpholinocyclobutyl)-3-(2-phenylquinolin-7-yl)-1H-pyrazole-4-carboxamide], the IC50 was no more than 100 nM.
In the case of `CN1CCC(n2nc(-c3ccc4ccc(-c5ccccc5)nc4c3)c(C(N)=O)c2N)CC1` [Example C007, 5-amino-1-(1-methylpiperidin-4-yl)-3-(2-phenylquinolin-7-yl)-1H-pyrazole-4-carboxamide], the IC50 is reported as 1000 to 20000 nM.
`C[C@]1(O)C[C@H](n2nc(-c3ccc4ccc(-c5ccccc5)nc4c3)c(C(N)=O)c2N)C1` [Example C006, 5-amino-1-((1r,3r)-3-hydroxy-3-methylcyclobutyl)-3-(2-phenylquinolin-7-yl)-1H-pyrazole-4-carboxamide] gave an IC50 of 100 to 1000 nM.
`C[C@]1(O)C[C@@H](n2nc(-c3ccc4ccc(-c5ccccc5)nc4c3F)c(C(N)=O)c2N)C1` [Example C028, 5-amino-3-(8-fluoro-2-phenylquinolin-7-yl)-1-((1s,3s)-3-hydroxy-3-methylcyclobutyl)-1H-pyrazole-4-carboxamide] gave an IC50 of no more than 100 nM.
`CCOc1cc(-c2ccccc2)nc2cc(-c3nn(C4CC(=O)C4)c(N)c3C(N)=O)ccc12` [Example C043, 5-amino-3-(4-ethoxy-2-phenylquinolin-7-yl)-1-(3-oxocyclobutyl)-1H-pyrazole-4-carboxamide] was tested, and the IC50 was no more than 100 nM.
`NC(=O)c1c(-c2ccc3ccc(-c4ccccc4)nc3c2)nn(C2CCN(C(N)=O)CC2)c1N` [Example C003, 4-(5-amino-4-carbamoyl-3-(2-phenylquinolin-7-yl)-1H-pyrazol-1-yl)piperidine-1-carboxamide] showed an IC50 of 1000 to 20000 nM.
For `NC(=O)c1c(-c2ccc3ccc(-c4ccccc4)nc3c2)nn2c1NCC(C(N)=O)C2` (stereo not drawn) [Example C031], the IC50 was 1000 to 20000 nM.
`NC(=O)c1c(-c2ccc3ccc(-c4ccccc4)nc3c2)nn(C2CC(N3CCC3)C2)c1N` (stereo not drawn) [Example C027, 5-amino-1-(3-(azetidin-1-yl)cyclobutyl)-3-(2-phenylquinolin-7-yl)-1H-pyrazole-4-carboxamide] gave an IC50 of 100 to 1000 nM.
In the case of `C[C@]1(O)C[C@@H](n2nc(-c3ccc4cnc(-c5ccccc5)nc4c3)c(C(N)=O)c2N)C1` [Example C054, 5-amino-1-((1s,3s)-3-hydroxy-3-methylcyclobutyl)-3-(2-phenylquinazolin-7-yl)-1H-pyrazole-4-carboxamide], the IC50 is reported as 1000 to 20000 nM.
For `CCOC(=O)[C@]1(C)C[C@@H](n2nc(-c3ccc4ccc(-c5ccccc5)nc4c3)c(C(N)=O)c2N)C1` [Example C020, ethyl (1r,3r)-3-(5-amino-4-carbamoyl-3-(2-phenylquinolin-7-yl)-1H-pyrazol-1-yl)-1-methylcyclobutane-1-carboxylate], the IC50 was 100 to 1000 nM.
`NC(=O)c1c(-c2ccc3ccc(-c4ccccc4)nc3c2)nn([C@H]2C[C@H](CN3CCNCC3)C2)c1N` [Example C016, 5-amino-3-(2-phenylquinolin-7-yl)-1-((1r,3r)-3-(piperazin-1-ylmethyl)cyclobutyl)-1H-pyrazole-4-carboxamide] gave an IC50 of no more than 100 nM.
For `C[C@]1(O)C[C@@H](n2nc(-c3ccc4ccc(-c5cccc(F)c5)nc4c3)c(C(N)=O)c2N)C1` [Example C041, 5-amino-3-(2-(3-fluorophenyl)quinolin-7-yl)-1-((1s,3s)-3-hydroxy-3-methylcyclobutyl)-1H-pyrazole-4-carboxamide], the IC50 was no more than 100 nM.
`CN1CCN(C[C@H]2C[C@H](n3nc(-c4ccc5ccc(-c6ccccc6)nc5c4)c(C(N)=O)c3N)C2)CC1` [Example C021, 5-amino-1-((1r,3r)-3-((4-methylpiperazin-1-yl)methyl)cyclobutyl)-3-(2-phenylquinolin-7-yl)-1H-pyrazole-4-carboxamide] gave an IC50 of no more than 100 nM.
`NC(=O)c1c(-c2ccc3ccc(-c4ccccc4)nc3c2)nn(C2COC2)c1N` [Example C029, 5-amino-1-(oxetan-3-yl)-3-(2-phenylquinolin-7-yl)-1H-pyrazole-4-carboxamide] gave an IC50 of 1000 to 20000 nM.
`NC(=O)c1c(-c2ccc3ccc(-c4ccccc4)nc3c2)nn(C2CCN(CCO)CC2)c1N` [Example C008, 5-amino-1-(1-(2-hydroxyethyl)piperidin-4-yl)-3-(2-phenylquinolin-7-yl)-1H-pyrazole-4-carboxamide] was tested, and the IC50 was 100 to 1000 nM.
Work on `NC(=O)c1c(-c2ccc3ccc(-c4ccccc4)nc3c2)nn([C@H]2C[C@@H](C(=O)O)C2)c1N` [Example C017, (1s,3s)-3-(5-amino-4-carbamoyl-3-(2-phenylquinolin-7-yl)-1H-pyrazol-1-yl)cyclobutane-1-carboxylic acid] yielded an IC50 of 1000 to 20000 nM.
Work on `C[C@]1(O)C[C@@H](n2nc(-c3ccc4ccc(-c5ccccc5Br)nc4c3)c(C(N)=O)c2N)C1` [Example C038, 5-amino-3-(2-(2-bromophenyl)quinolin-7-yl)-1-((ls,3s)-3-hydroxy-3-methylcyclobutyl)-1H-pyrazole-4-carboxamide] yielded an IC50 of no more than 100 nM.
Compound `C[C@]1(O)C[C@@H](n2nc(-c3ccc4ccc(-c5ccc(F)cc5)nc4c3)c(C(N)=O)c2N)C1` [Example C039, 5-amino-3-(2-(4-fluorophenyl)quinolin-7-yl)-1-((1s,3s)-3-hydroxy-3-methylcyclobutyl)-1H-pyrazole-4-carboxamide] has an IC50 of 100 to 1000 nM.
